Results on three molecules are retold here after ChEMBL document CHEMBL4842384 (J Med Chem, 2021).

Series [1] can be described thus: Aqueous solubility of compound at pH 1. Format: physicochemical. To be noted: buffer.
The nature of series [2]: Aqueous solubility of compound at pH 6.5. Particulars: buffer. Type of series: physicochemical.
Series [3] in a line: Aqueous solubility of compound at pH 7.4. To be noted: buffer. Format: physicochemical.
The nature of series [4]: Permeability of compound at pH 5.5 by PAMPA assay. Format: ADME. To be noted: for Papp: read-out: permeability. A general note: The PAMPA barrier holds no transporters, so it reflects passive diffusion.
The nature of series [5]: Permeability of compound at pH 7.4 by PAMPA assay. Type of series: ADME. To be noted: for Papp: read-out: permeability.
Series [6] can be described thus: Cmax in C57BL6 mouse at 30 mg/kg, po. Also noted: route oral, dose 30 mg/kg. To be noted: in vivo. Type of series: ADME, organism-based.
Series [7] can be described thus: AUC in C57BL6 mouse at 30 mg/kg, po. Further details: dose 30 mg/kg. Type of series: ADME, organism-based. To be noted: in vivo.
Series [8] can be described thus: Oral bioavailability in C57BL6 mouse at 30 mg/kg. Type of series: ADME, organism-based. To be noted: in vivo.

≈ marks a conversion by molar mass, not a printed value.

As usually defined, the solubility is how much of the substance goes into solution per volume. A high value points to much dissolved substance. One may read the Cmax as the highest concentration seen after dosing. As usually defined, the AUC is the area under the concentration-time curve, a measure of exposure. By bioavailability is commonly meant the share of a dose that reaches the circulation, judged against a reference dose that is usually intravenous. With `Cc1ccc(C2=C(c3nnn[nH]3)C(=O)N[C@@](c3ccc(OCCCC(F)(F)F)cc3)(C(F)(F)F)C2)cc1` [BMS-963272], the solubility in series [1] was 11 µg/mL (≈ 20.9 µM); in series [2], 1180 µg/mL (≈ 2240 µM); in series [3], greater than 2450 µg/mL. The Papp was 47.9 ×10⁻⁶ cm/s in series [4] and 17.9 ×10⁻⁶ cm/s in series [5]. The molecule further yielded a Cmax in series [6] of 11 µM. The AUC in series [7] came to 93 µM·h. This molecule gave a bioavailability in series [8] of 50%.
As for `Cc1ccc(C2=C(c3nnn[nH]3)C(=O)N[C@@](c3ccc(OCCCCCC(F)(F)F)cc3)(C(F)(F)F)C2)cc1`, the values for the solubility in series [1], in series [2] and in series [3] were 1 µg/mL (≈ 1.81 µM), 332 µg/mL (≈ 600 µM) and 1130 µg/mL (≈ 2050 µM), respectively. Also, the figures for the Papp in series [4] and in series [5] were 46.6 ×10⁻⁶ cm/s and 34.1 ×10⁻⁶ cm/s, respectively. In addition, the Cmax in series [6] amounted to 4.3 µM. The same molecule displayed an AUC in series [7] of 22 µM·h. Moreover, the bioavailability in series [8] was 88%.
`COc1ccc(NC(=O)C2=C(c3ccc(C)cc3)C[C@](c3ccc(OCCCC(F)(F)F)cc3)(C(F)(F)F)NC2=O)cc1`: the solubility in series [1] and in series [2] was less than 1 µg/mL in each case. The permeability result in series [4] and in series [5] was “Nd(Insoluble)” each time. Moreover, in series [6], the concentration peaked (Cmax) at 0.16 µM. For the same molecule, the AUC in series [7] amounted to 1.1 µM·h. Also, the bioavailability in series [8] was 15%.
